Assay results from PubChem BioAssay AID1963427 (Molecular Pharmacology Branch, DTP, NCI, 2024).

Tested on: 317291-083-R-J1-PDC complex spheroid growth
Experiment: Anticancer human tumor 317291-083-R-J1-PDC patient-derived soft tissue sarcoma cell line growth inhibition [Asc]
Details: for IC50: curve of first compound; for viability, T/C: stronger effect = lower value; active means viability on the fitted dose curve at most 10% of control; inactive means the rest
Summary of the method: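 Stromal components (HUVEC and hMSC) are co-assembled with the cancer cells into multicellular spheroids. Drugs are then added singly or paired, at concentrations falling by half-log increments from a clinically achievable maximum, capped at 10 microM without known Cmax.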

[1] = second compound 0.00316 µM, first compound 0.0316 µM
[2] = second compound 0.00316 µM, first compound 0.1 µM
[3] = second compound 0.00316 µM, first compound 0.316 µM
[4] = second compound 0.00316 µM, first compound 1 µM
[5] = second compound 0.01 µM, first compound 0.0316 µM
[6] = second compound 0.01 µM, first compound 0.1 µM
[7] = second compound 0.01 µM, first compound 0.316 µM
[8] = second compound 0.01 µM, first compound 1 µM
[9] = second compound 0.0316 µM, first compound 0.0316 µM
[10] = second compound 0.0316 µM, first compound 0.1 µM
[11] = second compound 0.0316 µM, first compound 0.316 µM
[12] = second compound 0.0316 µM, first compound 1 µM
[13] = second compound 0.1 µM, first compound 0.0316 µM
[14] = second compound 0.1 µM, first compound 0.1 µM
[15] = second compound 0.1 µM, first compound 0.316 µM
[16] = second compound 0.1 µM, first compound 1 µM
[17] = second compound 0.316 µM, first compound 0.0316 µM
[18] = second compound 0.316 µM, first compound 0.1 µM
[19] = second compound 0.316 µM, first compound 0.316 µM
[20] = second compound 0.316 µM, first compound 1 µM
[21] = second compound 1 µM, first compound 0.0316 µM
[22] = second compound 1 µM, first compound 0.1 µM
[23] = second compound 1 µM, first compound 0.316 µM
[24] = second compound 1 µM, first compound 1 µM
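Further: compound exposure lasted seven days after spheroids formed for three days.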
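Wherever viability, T/C is given: 100% = DMSO vehicle control wells.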

C=CC(=O)N1CCN(c2nc(=O)n(-c3c(C)ccnc3C(C)C)c3nc(-c4c(O)cccc4F)c(F)cc23)C(C)C1 (centres undefined) + CNC(C)C(=O)NC1CN(S(=O)(=O)c2cccc(S(=O)(=O)N3CCC4CCC(C(=O)NC(c5ccccc5)c5ccccc5)N4C(=O)C(NC(=O)C(C)NC)C3)c2)CCC2CCC(C(=O)NC(c3ccccc3)c3ccccc3)N2C1=O
< 31.6 nM: IC50 (second compound 1 µM)
5560 nM: IC50 (second compound 0.0316 µM)
> 10000 nM: IC50 (second compound 0.01 µM)
4400 nM: IC50 (second compound 0.1 µM)
inactive: viability, T/C [1] 96% | viability, T/C [2] 100% | viability, T/C [3] 85.2% | viability, T/C [4] 91.3% | viability, T/C (second compound 0.00316 µM, first compound 3.16 µM) 93.5% | viability, T/C (second compound 0.00316 µM, first compound 10 µM) 48.9% | viability, T/C [5] 92.9% | viability, T/C [6] 77.4% | viability, T/C [7] 83.3% | viability, T/C [8] 97.1% | viability, T/C (second compound 0.01 µM, first compound 3.16 µM) 62.5% | viability, T/C (second compound 0.01 µM, first compound 10 µM) 56.9% | viability, T/C [9] 93.1% | viability, T/C [10] 70.1% | viability, T/C [11] 77.4% | viability, T/C [12] 73.7% | viability, T/C (second compound 0.0316 µM, first compound 3.16 µM) 71.7% | viability, T/C (second compound 0.0316 µM, first compound 10 µM) 28.8% | viability, T/C [13] 68.7% | viability, T/C [14] 54.2% | viability, T/C [15] 59.9% | viability, T/C [16] 62.8% | viability, T/C (second compound 0.1 µM, first compound 3.16 µM) 57.6% | viability, T/C (second compound 0.1 µM, first compound 10 µM) 30.4% | viability, T/C [17] 57.2% | viability, T/C [18] 42.9% | viability, T/C [19] 62.1% | viability, T/C [20] 48.9% | viability, T/C (second compound 0.316 µM, first compound 3.16 µM) 39% | viability, T/C (second compound 0.316 µM, first compound 10 µM) 23.5% | viability, T/C [21] 49% | viability, T/C [22] 28.6% | viability, T/C [23] 32.2% | viability, T/C [24] 35% | viability, T/C (second compound 1 µM, first compound 3.16 µM) 30.6% | viability, T/C (second compound 1 µM, first compound 10 µM) 13.5%
1090 nM: IC50 (second compound 0.316 µM)
9720 nM: IC50 (second compound 0.00316 µM)

COc1c(OCCCN2CCOCC2)ccc2c3n(c(=NC(=O)c4cnc(N)nc4)nc12)CCN3 + CNC(C)C(=O)NC1CN(S(=O)(=O)c2cccc(S(=O)(=O)N3CCC4CCC(C(=O)NC(c5ccccc5)c5ccccc5)N4C(=O)C(NC(=O)C(C)NC)C3)c2)CCC2CCC(C(=O)NC(c3ccccc3)c3ccccc3)N2C1=O
inactive: viability, T/C (second compound 0.00316 µM, first compound 0.00316 µM) 80.1% | viability, T/C (second compound 0.00316 µM, first compound 0.01 µM) 81% | viability, T/C [1] 68.1% | viability, T/C [2] 43.5% | viability, T/C [3] 28.3% | viability, T/C [4] 15.5% | viability, T/C (second compound 0.01 µM, first compound 0.00316 µM) 72.6% | viability, T/C (second compound 0.01 µM, first compound 0.01 µM) 103% | viability, T/C [5] 61.4% | viability, T/C [6] 42.6% | viability, T/C [7] 22.7% | viability, T/C [8] 13.3% | viability, T/C (second compound 0.0316 µM, first compound 0.00316 µM) 76.5% | viability, T/C (second compound 0.0316 µM, first compound 0.01 µM) 73.2% | viability, T/C [9] 77% | viability, T/C [10] 37.7% | viability, T/C [11] 18.2% | viability, T/C [12] 11% | viability, T/C (second compound 0.1 µM, first compound 0.00316 µM) 53.8% | viability, T/C (second compound 0.1 µM, first compound 0.01 µM) 44.8% | viability, T/C [13] 38.9% | viability, T/C [14] 34.2% | viability, T/C [15] 16.9% | viability, T/C (second compound 0.316 µM, first compound 0.00316 µM) 56% | viability, T/C (second compound 0.316 µM, first compound 0.01 µM) 44.4% | viability, T/C [17] 68.8% | viability, T/C [18] 32.3% | viability, T/C [19] 13.8% | viability, T/C [20] 11% | viability, T/C (second compound 1 µM, first compound 0.00316 µM) 33.2% | viability, T/C (second compound 1 µM, first compound 0.01 µM) 36% | viability, T/C [21] 27.2% | viability, T/C [22] 19.2% | viability, T/C [23] 9.14%
68.7 nM: IC50 (second compound 0.0316 µM)
5.31 nM: IC50 (second compound 0.1 µM)
43 nM: IC50 (second compound 0.316 µM)
< 3.16 nM: IC50 (second compound 1 µM)
79.4 nM: IC50 (second compound 0.00316 µM)
active: viability, T/C [16] 10.7% | viability, T/C [24] 5.37%
68.4 nM: IC50 (second compound 0.01 µM)
